Literature values, collected in publication PMC10135567, “New Indole-3-Propionic Acid and 5-Methoxy-Indole Carboxylic Acid Derived Hydrazone Hybrids as Multifunctional Neuroprotectors” (Antioxidants, 2023).

System: SH-SY5Y cells and isolated rat-brain synaptosomes
Parameters: method as in PMID 35624746
Conditions: SH-SY5Y cells and rat-brain synaptosomes under toxic agents of oxidative stress; cited from earlier work

In the case of O=C(CCn1c(=S)n(CCC(=O)N/N=C/c2cccc(O)c2O)c2ccccc21)N/N=C/c1cccc(O)c1O [VIII], the “cellular and synaptosomal viability restored” value is listed as “up to 80%”.
